Assay results taken from patent publication US20090137580A1, “Fused Heterocyclic Derivatives and Use Thereof” (Takeda Pharmaceutical Company Limited, priority 2005, published 2009).
pIC50: −log10 of the molar value. Counter-ions that a name gives are not always drawn.

Experiments:
[1] = tested on: Human umbilical vein endothelial cells (HUVEC); assay: Vascular endothelial cell growth inhibitory test; format: cell-based; settings: VEGF 120 ng/mL, culture 5 days, XTT reagent
Method: Human umbilical vein endothelial cells (HUVEC, purchased from KURABO) were cultured in a gas incubator (37° C., CO2 5%) in a vascular endothelial cell medium (Invitrogen) containing 5% fetal calf serum and a basic fibroblast growth factor (2.5 ng/mL). To be specific, HUVEC suspended in the aforementioned vascular endothelial cell medium (Invitrogen) containing 5% fetal calf serum were seeded into a 96 well flat-bottom plate (50 μL, 3000 cells each well). After culturing overnight, various concentrations of test substance and the final concentration (120 ng/mL) of vascular endothelial growth factor (VEGF) were dissolved in a vascular endothelial cell medium (Invitrogen) containing 5% fetal calf serum and added to each well (50 μL). After culturing for 5 days, an XTT reagent (Wako Pure Chemical Industries, Ltd.) was added to each well (10 μL), and reacted in a gas incubator (37° C., CO2 5%) for 2-3 hr. The absorbance at 450 nm was measured by a microtiter plate reader, and the cell growth inhibitory activity was determined.

[2] = target: T1, VEGF Receptor 2 Kinase (VEGFR2) (Homo sapiens, UniProt P35968); assay: Determination of VEGF receptor 2 kinase (VEGFR2) inhibitory activity (alpha screen); format: biochemical; settings: VEGFR2 intracellular domain protein, 25 μM ATP buffer, read-out: inhibitory rate (kinase inhibitory rate of VEGFR2)
T1 construct: made in house; host or cells: SF-21 insect cells, recombinant baculovirus BAC-VEGFR2 (pFASTBAC1)
T1 sequence (P35968 786-1356 limits assumed): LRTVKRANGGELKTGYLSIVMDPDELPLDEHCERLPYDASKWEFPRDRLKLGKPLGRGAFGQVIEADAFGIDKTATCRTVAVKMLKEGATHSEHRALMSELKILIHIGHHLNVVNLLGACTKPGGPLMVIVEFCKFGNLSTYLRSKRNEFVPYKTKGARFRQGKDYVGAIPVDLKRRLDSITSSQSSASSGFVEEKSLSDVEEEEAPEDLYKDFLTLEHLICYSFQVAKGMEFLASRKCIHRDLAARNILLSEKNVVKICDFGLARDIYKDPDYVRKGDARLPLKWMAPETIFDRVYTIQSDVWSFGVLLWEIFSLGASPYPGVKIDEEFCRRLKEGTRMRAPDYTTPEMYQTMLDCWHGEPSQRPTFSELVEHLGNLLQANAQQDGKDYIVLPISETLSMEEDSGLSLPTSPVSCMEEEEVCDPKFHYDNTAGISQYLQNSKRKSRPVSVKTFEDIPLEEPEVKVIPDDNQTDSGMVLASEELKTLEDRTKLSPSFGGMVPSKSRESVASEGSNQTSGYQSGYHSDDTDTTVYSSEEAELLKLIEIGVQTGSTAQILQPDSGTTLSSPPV
Method: For cloning of human VEGF receptor 2 (hereinafter to be abbreviated as VEGFR2) gene, PCR was performed using cDNA Libraries Human Placenta (Clontech) as a template. The primer used for PCR was prepared by, based on the information of the base sequence (Genbank Accession AF035121) of VEGFR2 gene, adding a base sequence encoding the flag peptide and a restriction enzyme recognition sequence to the base sequence (2671-4374 of Genbank Accession AF035121) encoding the VEGFR2 intracellular domain, so that a flag tag would be added to the N terminal of the protein. The primer base sequence is shown in the following.
PCR reaction was carried out using a KOD-plus kit (TOYOBO). The obtained PCR product was electrophoresed on an agarose gel (1%), and a DNA fragment amplified by PCR was recovered from the gel and digested with restriction enzymes Sal I and Sph I. The DNA after the restriction enzyme treatment was electrophoresed on an agarose gel (1%), and the obtained DNA fragment was recovered and ligated to the plasmid pFASTBAC1 (Invitrogen) digested with restriction enzymes Sal I and Sph I to give an expression plasmid pFB-VEGFR2. The base sequence of the inserted fragment was confirmed to have matched with the base sequence (2671-4374 of Genbank Accession AF035121) of the VEGFR2 intracellular domain. Furthermore, virus stock BAC-VEGFR2 of the recombinant Baculovirus was prepared using BAC-TO-BAC Baculovirus Expression System (Invitrogen).
SF-21 cells were inoculated into 1 L of Sf-900IISFM medium (Invitrogen) containing 10% fetal calf serum (trace), 50 mg/L Gentamicin (Invitrogen) and 0.1% Pluronic F-68 (Invitrogen) at 1×10^6 cells/ml, and shake culture was performed using a 2 L Erlenmeyer flask at 27° C., 100 rpm. After 24 hr of culture, recombinant Baculovirus BAC-VEGFR2 (13.4 mL) was added, and the culture was continued for 3 days. The culture medium was centrifuged at 2,000 rpm for 5 min to give virus-infected cells. The infected cells were washed with phosphate buffered saline (Invitrogen), centrifuged under the same conditions, and preserved at −80° C. The cryopreserved cells were thawed in ice, suspended in 30 mL of buffer A (Tris buffer, pH 7.4, containing 20% glycerol and 0.15M NaCl (50 mM)) supplemented with Complete Protease Inhibitor (Boehringer), and disrupted three times using a polytron homogenizer (Kinematica) at 20,000 rpm, 30 sec. The disrupt was clarified by centrifugation at 40,000 rpm, 30 min and filtered through a 0.45 μm filter. The filtrate was passed through a column packed with Anti-FLAG M2 Affinity Gel (Sigma Ltd., 4 mL) at a flow rate of about 0.5 mL/min. The column was washed with buffer A and eluted with buffer A containing 100 μg/mL FLAG peptide. The eluate was concentrated by Vivaspin 20 (Viva Science) having a fraction molecular weight of 30K. The concentrate was applied to NAP™ 25 column (Amersham Biosciences) equilibrated with buffer A for buffer exchange. The fractions containing the VEGFR2 intracellular domain protein were collected, glycerol was added to the final concentration of 50% and the fractions cryopreserved at ˜80° C.
The test compound dissolved in dimethyl sulfoxide (DMSO) was diluted with a buffer (50 mM Tris-HCl, pH 7.5, 5 mM MgCl2, 5 mM MnCl2, 2 mM dithiothreitol, 0.01% Tween-20). A buffer (10 μl) containing 50 ng/ml VEGFR2 intracellular domain protein and 250 ng/ml biotin-labeled polypeptide biotinyl-poly-Glu:Tyr (4:1) (CIS Bio International) was added to the compound solution (5 μl). A buffer (10 μl) containing 25 μM ATP was added to the obtained mixture, the mixture was allowed to react at 25° C. for 5 min. Then, 25 μl of a stop solution (100 mM EDTA·2 sodium salt, 62.5 mM HEPES buffer (pH 7.4), 250 mM NaCl, 0.1% bovine serum albumin, 10 μg/ml Streptavidin Donor beads: PerkinElmer for alpha screen assay, 10 μg/ml Anti-phosphotyrosine (P-Tyr-100) Acceptor beads: PerkinElmer for alpha screen assay) was added to quench the reaction. […]

[3] = target: T2, TIE2 Receptor Kinase (TIE2) (Homo sapiens, UniProt Q02763); assay: Determination of TIE2 receptor kinase (TIE2) inhibitory activity (alpha screen); format: biochemical; settings: TIE2 intracellular domain protein, 5 μM ATP buffer; read-out: IC50 value (TIE2 kinase inhibition)
T2 construct: TIE2 intracellular domain protein (UPSTATE); purchased UPSTATE
T2 sequence (Q02763 770-1124 limits assumed): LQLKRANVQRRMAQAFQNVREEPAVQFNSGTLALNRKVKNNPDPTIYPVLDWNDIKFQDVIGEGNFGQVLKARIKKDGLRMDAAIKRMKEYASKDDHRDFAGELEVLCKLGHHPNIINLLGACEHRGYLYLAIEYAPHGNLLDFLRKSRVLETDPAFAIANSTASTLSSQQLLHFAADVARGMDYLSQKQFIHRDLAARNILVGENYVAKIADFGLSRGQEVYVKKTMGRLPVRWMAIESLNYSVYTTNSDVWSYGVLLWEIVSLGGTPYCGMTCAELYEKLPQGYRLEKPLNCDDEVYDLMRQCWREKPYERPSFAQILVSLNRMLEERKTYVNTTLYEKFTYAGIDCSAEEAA
Method: The test compound dissolved in dimethyl sulfoxide (DMSO) was diluted with a buffer (50 mM Tris-HCl, pH 7.5, 5 mM MgCl2, 5 mM MnCl2, 2 mM dithiothreitol, 0.01% Tween-20). A buffer (10 μl) containing 50 ng/ml TIE2 intracellular domain protein (UPSTATE) and 250 ng/ml biotin-labeled polypeptide biotinyl-poly-Glu:Tyr (4:1) (CIS Bio International) was added to the compound solution (5 μl). At 5 min after mixing a kinase enzyme, the compound and a biotin-labeled polypeptide, a buffer (10 μl) containing 5 μM ATP was added to the obtained mixture, the mixture was allowed to react at 25° C. for 10 min. Then, 25 μl of a stop solution (100 mM EDTA·2 sodium salt, 62.5 mM HEPES buffer (pH 7.4), 250 mM NaCl, 0.1% bovine serum albumin, 10 μg/ml Streptavidin Donor beads: PerkinElmer for alpha screen assay, 10 μg/ml Anti-phosphotyrosine (P-Tyr-66) Acceptor beads: PerkinElmer for alpha screen assay) was added to quench the reaction. The reaction solution was stood at 25° C. for 16 hr, and the count was measured using a plate reader·Fusion™ (manufactured by PerkinElmer). The kinase inhibitory rate (%) of the test compound was calculated by the following formula.
(§1) Inhibitory rate(%)=(1−(count of test compound−blank)÷(control−blank))×100
(§2) wherein the count of the solution reacted without addition of the compound is “control” and the count of the solution without addition of the compound and ATP is “blank”.
Prism (Graphpad Software) according to the nonlinear-regression sigmoidal dose-response (variable slope) analysis method.

[4] = target: T3, PDGFR Alpha Receptor Kinase (PDGFRalpha) (Homo sapiens, UniProt P16234); assay: Determination of PDGFR alpha receptor kinase (PDGFRalpha) inhibitory activity (alpha screen); format: biochemical; settings: PDGFRalpha intracellular domain protein, 25 μM ATP buffer; read-out: IC50 value (PDGFRalpha kinase inhibition)
T3 construct: PDGFRalpha intracellular domain protein (UPSTATE); purchased UPSTATE
T3 sequence (P16234 550-1089 limits assumed): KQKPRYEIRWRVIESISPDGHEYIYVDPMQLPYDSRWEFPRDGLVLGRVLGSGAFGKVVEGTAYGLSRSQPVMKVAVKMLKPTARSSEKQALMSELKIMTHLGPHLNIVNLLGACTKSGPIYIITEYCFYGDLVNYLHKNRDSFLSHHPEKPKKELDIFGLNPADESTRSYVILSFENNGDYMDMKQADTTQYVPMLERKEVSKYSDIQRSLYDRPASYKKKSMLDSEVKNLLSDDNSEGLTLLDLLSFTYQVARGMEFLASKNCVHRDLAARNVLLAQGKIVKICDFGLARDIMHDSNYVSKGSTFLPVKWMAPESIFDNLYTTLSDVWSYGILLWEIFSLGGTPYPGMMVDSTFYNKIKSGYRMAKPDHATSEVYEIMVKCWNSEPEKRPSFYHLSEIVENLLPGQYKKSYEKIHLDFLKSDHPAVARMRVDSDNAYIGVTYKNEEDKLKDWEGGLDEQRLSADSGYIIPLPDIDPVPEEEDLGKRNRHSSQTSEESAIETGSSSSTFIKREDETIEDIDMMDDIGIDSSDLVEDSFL
Method: The test compound dissolved in dimethyl sulfoxide (DMSO) was diluted with a buffer (50 mM Tris-HCl, pH 7.5, 5 mM MgCl2, 5 mM MnCl2, 2 mM dithiothreitol, 0.01% Tween-20).
Acceptor beads: PerkinElmer for alpha screen assay) was added to quench the reaction. The reaction solution was stood at 25° C. for 16 hr, and the count was measured using a plate reader·Fusion™ (manufactured by PerkinElmer). The kinase inhibitory rate (%) of the test compound was calculated by the following formula.
as §1, §2

SMILES	pIC50 [1]	inhibition at 1 µM [2]	pIC50 ([1]; Homo sapiens, 120 h)	pIC50 [3]	pIC50 [4]	pIC50 ([1]; hydrochloride)
Cn1ccc2ncnc(Oc3ccc(NC(=O)Nc4cccc(C(F)(F)F)c4)c(F)c3)c21 [Example 29, N-{2-fluoro-4-[(5-methyl-5H-pyrrolo[3,2-d]pyrimidin-4-yl)oxy]phenyl}-N′-[3-(trifluoromethyl)phenyl]urea]	8.36	–	–	–	–	–
Cn1ccc2ncnc(Oc3ccc(NC(=O)Nc4cc(C(F)(F)F)ccn4)c(Cl)c3)c21 [Example 30, N-{2-chloro-4-[(5-methyl-5H-pyrrolo[3,2-d]pyrimidin-4-yl)oxy]phenyl}-N′-[4-(trifluoromethyl)pyridin-2-yl]urea]	8.57	≥ 90%	–	–	–	–
O=C(Nc1cccc(C(F)(F)F)c1)Nc1ccc(Oc2ncnc3cc[nH]c23)cc1Cl [Example 39, N-[2-chloro-4-(5H-pyrrolo[3,2-d]pyrimidin-4-yloxy)phenyl]-N′-[3-(trifluoromethyl)phenyl]urea]	–	–	8.32	–	–	–
Cn1ccc2ncnc(Oc3ccc(NC(=O)Nc4cc(C(F)(F)F)ccn4)c(Cl)c3)c21 [Example 60, N-{2-chloro-4-[(5-methyl-5H-pyrrolo[3,2-d]pyrimidin-4-yl)oxy]phenyl}-N′-[4-(trifluoromethyl)pyridin-2-yl]urea Methanesulfonic Acid Salt]	8.19	–	–	≥ 8.30	–	–
Cn1ccc2ncnc(Oc3ccc(NC(=O)Nc4cc(C(F)(F)F)ccc4F)c(Cl)c3)c21 [Example 40, N-{2-chloro-4-[(5-methyl-5H-pyrrolo[3,2-d]pyrimidin-4-yl)oxy]phenyl}-N′-[2-fluoro-5-(trifluoromethyl)phenyl]urea]	–	≥ 90%	7.96	≥ 8.30	–	–
O=C(Nc1cccc(C(F)(F)F)c1)Nc1ccc(Oc2ncnc3cc[nH]c23)cc1Cl [Example 116, N-[2-chloro-4-(5H-pyrrolo[3,2-d]pyrimidin-4-yloxy)phenyl]-N′-[3-(trifluoromethyl)phenyl]urea p-toluenesulfonic Acid Salt]	8.47	≥ 90%	–	≥ 8.30	≥ 6.30	–
Cc1cc2ncnc(Oc3ccc(NC(=O)Nc4cccc(C(F)(F)F)c4)c(Cl)c3)c2n1C [Example 134, N-{2-chloro-4-[(5,6-dimethyl-5H-pyrrolo[3,2-d]pyrimidin-4-yl)oxy]phenyl}-N′-[3-(trifluoromethyl)phenyl]urea hydrochloride]	–	–	–	–	–	8.27
Cc1cc2ncnc(Oc3ccc(NC(=O)Nc4cccc(C(F)(F)F)c4)c(Cl)c3)c2n1C [Example 124, N-{2-chloro-4-[(5,6-dimethyl-5H-pyrrolo[3,2-d]pytimidin-4-yl)oxy]phenyl}-N′-[3-(trifluoromethyl)phenyl]urea]	7.89	–	–	–	–	–
O=C(Nc1cccc(C(F)(F)F)c1)Nc1ccc(Oc2ncnc3ccn(CCOCCO)c23)cc1Cl [Example 14, N-[2-chloro-4-({5-[2-(2-hydroxyethoxy)ethyl]-5H-pyrrolo[3,2-d]pyrimidin-4-yl}oxy)phenyl]-N′-[3-(trifluoromethyl)phenyl]urea]	–	≥ 90%	7.48	≥ 8.30	≥ 6.30	–
Cn1ccc2ncnc(Oc3ccc(NC(=O)Nc4cccc(C(F)(F)F)c4)c(F)c3)c21 [Example 137, N-{2-fluoro-4-[(5-methyl-5H-pyrrolo[3,2-d]pyrimidin-4-yl)oxy]phenyl}-N′-[3-(trifluoromethyl)phenyl]urea Hydrochloride]	–	≥ 90%	8.44	≥ 8.30	–	–
